Measurements from US20030229066A1, “Novel heterocyclic urea derivatives and their use as dopamine D3 receptor ligands” (priority 2001, published 2003).

What follows are compounds tested against T1, cloned human dopamine D3 receptors (Homo sapiens, UniProt P35462) (assay: [N-Methyl-3H]Spiroperidol binding to cloned human dopamine D3 receptors). Conditions: not given.
T1 construct: expressed in transfected cells
Text: [N-Methyl-^3H]Spiroperidol Binding to Cloned Human Dopamine D3 Receptors
This assay measures the in vitro activity of compounds on cloned human dopamine (D3) receptors and predicts the direct dopamine-blocking properties of putative neuropsychiatric agents at human dopamine D3 receptors.
The D3 gene was isolated from a human striatal cDNA library (Stratagene). The gene was sequenced and sub-cloned into the expression vector RC/RSV (Invitrogen). CHO (Chinese Hamster Ovary) cells were stably transfected with 10 μg of the D3/RSV plasmid using the DOTAP method from Boehringer Mannheim and 72 clones that were G418 resistant were isolated. Using mRNA and binding displacement data a single high expressing clone was identified. This clone was then grown in large batches for the purpose of developing a 96 well format assay.
The cells are harvested into 250 ml centrifuge tubes with 100 volumes of cold phosphate buffered saline (PBS) and spun down (1200×G for 10 min at 4° C.). The medium is removed and 100 ml PBS are added to each centrifuge tube, cells are resuspened and spun down again. The PBS is removed and the final pellet is homogenized in an appropriate volume of 10% DMSO with a polytron on ice at a medium setting.
For Kj determinations: [^3H]NMSP is made up to a concentration of 2.7 nM in buffer 2b, such that when 150 μl is added to each tube a final concentration of 0.4 nM is attained in the 1 ml assay. Samples of total CPM added are taken for each experiment to calculate the total ligand concentration.
5. S(-)-Eticlopride is obtained from Research Biochemicals International (RBI catalog number E-101). A refrigerated stock (good for up to a month) solution of S(-)-eticlopride is made at a concentration of 30 μM in buffer 2b. One hundred microliters are added to 3 wells for the determination of nonspecific binding (this yields a final concentration of 3 μM in the 1 ml assay).
For most assays, a 100 μM stock solution of the test compound is made up in a suitable solvent (usually <0.1% acetic acid) and serially diluted with buffer 2b, such that when 100 μl of drug is combined with the total 1 ml assay, final concentrations ranging from 10^−5-10^−8 M are attained. Characteristically eight concentrations are studied for each assay; however, higher or lower concentrations may be used, depending on the potency of the drug.
The 96-Well Packard Unifilters GF/B are incubated for >1 h at 25° C. in 0.1% polyethylamine (from 3,b). The cold tissue is added last and mixed on a orbital shaker for a few seconds and is then incubated at 37° C. for 30 min in a shaking water bath. The assay is stopped by rapid filtration through Packard Unifilter plates. The filter membranes are then washed with 15 ml of ice-cold 0.05 M Tris buffer. The filters are then dried (˜15 min under a heat lamp or incubated for 15 min in a 60° C. oven) and a bottom seal is applied. Then 40 μl of Packard Microscint 20 scintillation cocktail is added and a permanent topseal (Type P) is applied and heat sealed. The plates are then shaken on an orbital shaker for 1 h and placed in the Packard Topcount and counted for at least 5 minutes for each point.
Specific binding is defined as the difference between total binding and the binding in the presence of 3 μM S-(-)-eticlopride. Total binding is approximately 10% of the total added ligand. Cheng-Prusoff determination (Kj's) are performed using Prism software using a one-site competition curve analysis where the top and the bottom of the non-linear regression are held constant at 0% and 100% percent inhibition. The percent inhibition at each drug concentration is the mean of duplicate determinations.

T1 sequence (P35462 whole entry): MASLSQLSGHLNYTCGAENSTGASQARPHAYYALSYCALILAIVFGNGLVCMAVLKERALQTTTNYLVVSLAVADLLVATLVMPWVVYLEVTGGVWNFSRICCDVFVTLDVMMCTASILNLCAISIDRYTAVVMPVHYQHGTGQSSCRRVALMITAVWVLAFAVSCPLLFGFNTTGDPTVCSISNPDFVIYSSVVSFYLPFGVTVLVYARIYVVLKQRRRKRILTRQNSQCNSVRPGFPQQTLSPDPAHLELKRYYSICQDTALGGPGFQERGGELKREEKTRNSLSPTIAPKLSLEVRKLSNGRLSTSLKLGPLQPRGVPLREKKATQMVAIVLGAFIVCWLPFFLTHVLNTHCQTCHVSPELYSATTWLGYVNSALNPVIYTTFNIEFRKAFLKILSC

Point of comparison: `CC(C)(C)NC(=O)NCC1CC1CN1CCC(c2noc3ccsc23)CC1` (racemic) [compound 831498], Ki 43.6 nM. Against it:
- C=CCN(CC1CC1CN1CCCN(c2csc3cc(F)ccc23)CC1)C(=O)Nc1ccc(OC)cc1 (racemic) [compound 830389] — 15-fold lower, 2.97 nM
- O=C(Nc1ccc(OC(F)(F)F)cc1)N(Cc1ccccc1)CC1CC1CN1CCCN(c2csc3cc(F)ccc23)CC1 (racemic) [compound 830400] — within 1.5-fold, 41.3 nM
- O=C(Nc1ccc(Cl)c(Cl)c1)N(Cc1ccccc1)CC1CC1CN1CCCN(c2csc3cc(F)ccc23)CC1 (racemic) [compound 830401] — within 1.5-fold, 29.7 nM
- COc1ccc(NC(=O)NCC2CC2CN2CCCN(c3csc4cc(F)ccc34)CC2)cc1 (racemic) [compound 830408] — 13-fold lower, 3.43 nM
- O=C(NCC1CC1CN1CCCN(c2csc3cc(F)ccc23)CC1)Nc1ccc(Cl)c(Cl)c1 (racemic) [compound 830409] — within 1.5-fold, 47.4 nM
- O=C(NCCc1ccccc1)NCC1CC1CN1CCC(c2noc3ccsc23)CC1 (racemic) [compound 831670] — 3.6-fold higher, 159 nM

Same assay, conditions: Table III; read-out: d3Ki

Point of comparison: `O=C(NCCCCN1CCC(c2noc3ccsc23)CC1)NC12CC3CC(CC(C3)C1)C2` [compound 815392], Ki 24 nM. Against it:
- COc1ccc(NC(=O)NCCCCN2CCN(c3csc4cc(C(F)(F)F)ccc34)CC2)cc1 [815994A] — 4-fold lower, 5.94 nM
- Cc1ccc(NC(=O)NCCCCN2CCN(c3csc4cc(C(F)(F)F)ccc34)CC2)cc1 [815997A] — 5.9-fold lower, 4.08 nM
- CC(=O)c1ccc(NC(=O)NCCCCN2CCN(c3c(Cl)sc4cc(F)ccc34)CC2)cc1 [compound 815158] — 3.2-fold lower, 7.4 nM
- O=C(NCCCCN1CCN(c2c(Cl)sc3cc(F)ccc23)CC1)Nc1ccc(Oc2ccccc2)cc1 [compound 815159] — 3.6-fold higher, 85.4 nM
- O=C(NCCCCN1CCN(c2c(Cl)sc3cc(F)ccc23)CC1)Nc1ccc(-c2ccccc2)cc1 [compound 815160] — 8-fold higher, 192 nM
- O=C(NCCCCN1CCN(c2c(Cl)sc3cc(F)ccc23)CC1)Nc1ccc(OCc2ccccc2)cc1 [compound 815161] — 3.2-fold higher, 75.9 nM
- O=C(NCCCCN1CCN(c2c(Cl)sc3cc(F)ccc23)CC1)Nc1ccc(C(F)(F)F)cc1 [compound 815162] — 1.6-fold higher, 38 nM
- O=C(NCCCCN1CCN(c2c(Cl)sc3cc(F)ccc23)CC1)Nc1cccc(F)c1 [compound 815163] — within 1.5-fold, 25.2 nM
- O=C(NCCCCN1CCN(c2c(Cl)sc3cc(F)ccc23)CC1)Nc1ccc(F)cc1 [compound 815164] — within 1.5-fold, 31.9 nM
- COc1ccc(NC(=O)NCCCCN2CCN(c3c(Cl)sc4cc(F)ccc34)CC2)cc1 [compound 815165] — within 1.5-fold, 21.4 nM
- CCCCOc1ccc(NC(=O)NCCCCN2CCN(c3c(Cl)sc4cc(F)ccc34)CC2)cc1 [compound 815166] — 1.5-fold higher, 37 nM
- CC(C)c1ccc(NC(=O)NCCCCN2CCN(c3c(Cl)sc4cc(F)ccc34)CC2)cc1 [compound 815167] — 2-fold higher, 48 nM
- O=C(NCCCCN1CCN(c2c(Cl)sc3cc(F)ccc23)CC1)Nc1ccc(I)cc1 [compound 815168] — within 1.5-fold, 33.4 nM
- O=C(NCCCCN1CCN(c2c(Cl)sc3cc(F)ccc23)CC1)Nc1ccccc1Cl [compound 815169] — 2.1-fold lower, 11.2 nM
- CCCCc1ccc(NC(=O)NCCCCN2CCN(c3c(Cl)sc4cc(F)ccc34)CC2)cc1 [compound 815170] — within 1.5-fold, 17.7 nM
- Cc1ccc(NC(=O)NCCCCN2CCN(c3c(Cl)sc4cc(F)ccc34)CC2)cc1 [compound 815171] — 6.3-fold lower, 3.8 nM
- O=C(NCCCCN1CCN(c2c(Cl)sc3cc(F)ccc23)CC1)Nc1ccc(Cl)cc1 [compound 815172] — 4.3-fold lower, 5.6 nM
- O=C(NCCCCN1CCN(c2c(Cl)sc3cc(F)ccc23)CC1)Nc1ccccc1C(F)(F)F [compound 815173] — 1.9-fold higher, 46.5 nM
- O=C(NCCCCN1CCN(c2c(Cl)sc3cc(F)ccc23)CC1)Nc1ccc(Br)cc1 [compound 815174] — 4-fold lower, 6 nM
- O=C(NCCCCN1CCN(c2c(Cl)sc3cc(F)ccc23)CC1)Nc1cccc2ccccc12 [compound 815175] — 2-fold lower, 11.8 nM
- O=C(NCCCCN1CCN(c2c(Cl)sc3cc(F)ccc23)CC1)NCc1ccccc1 [compound 815177] — within 1.5-fold, 18 nM
- S=C(NCCCCN1CCC(c2noc3ccsc23)CC1)Nc1ccccc1 [compound 815383] — 7.9-fold higher, 190 nM
- O=C(NCCCCN1CCC(c2noc3ccsc23)CC1)Nc1ccc(Br)cc1 [compound 815386] — within 1.5-fold, 18 nM
- O=C(NCCCCN1CCC(c2noc3ccsc23)CC1)Nc1ccc(-c2ccccc2)cc1 [compound 815387] — within 1.5-fold, 28 nM
- O=C(NCCCCN1CCC(c2noc3ccsc23)CC1)NC1CCCCC1 [compound 815389] — within 1.5-fold, 30 nM
- O=C(NCCCCN1CCC(c2noc3ccsc23)CC1)Nc1cccc2ccccc12 [compound 815390] — 2.2-fold higher, 52 nM
- O=C(NCCCCN1CCC(c2noc3ccsc23)CC1)Nc1ccc(Oc2ccccc2)cc1 [compound 815391] — 1.5-fold lower, 16 nM
- CCc1cccc(NC(=O)NCCCCN2CCC(c3noc4ccsc34)CC2)c1 [compound 815934] — 5.7-fold lower, 4.19 nM
- O=C(NCCCCN1CCC(c2noc3ccsc23)CC1)Nc1ccc(OC(F)(F)F)cc1 [compound 815935] — 2.2-fold higher, 53.8 nM
- O=C(NCCCCN1CCC(c2noc3ccsc23)CC1)Nc1cc(C(F)(F)F)ccc1Cl [compound 815936] — 6.1-fold lower, 3.91 nM
- CC(NC(=O)NCCCCN1CCC(c2noc3ccsc23)CC1)c1ccc(Br)cc1 (stereo not shown) [compound 815937] — 2.8-fold higher, 66.3 nM
- CCO[Si](CCCNC(=O)NCCCCN1CCC(c2noc3ccsc23)CC1)(OCC)OCC [compound 815938] — 6.4-fold higher, 153 nM
- O=C(NCCCCN1CCC(c2noc3ccsc23)CC1)Nc1ccccc1Br [compound 815939] — within 1.5-fold, 19.1 nM
- CCNC(=O)NCCCCN1CCC(c2noc3ccsc23)CC1 [compound 815940] — 5.8-fold higher, 140 nM
- CCOC(=O)c1ccccc1NC(=O)NCCCCN1CCC(c2noc3ccsc23)CC1 [compound 815941] — 5.3-fold higher, 128 nM
- CCOC(=O)C(CC(C)C)NC(=O)NCCCCN1CCC(c2noc3ccsc23)CC1 (stereo not shown) [compound 815942] — 1.7-fold higher, 41.7 nM
- CCOC(=O)CCNC(=O)NCCCCN1CCC(c2noc3ccsc23)CC1 [compound 815943] — 8.2-fold higher, 198 nM
- COC(=O)C(Cc1ccccc1)NC(=O)NCCCCN1CCC(c2noc3ccsc23)CC1 (stereo not shown) [compound 815944] — 12-fold higher, 297 nM
- O=C(NCCCCN1CCC(c2noc3ccsc23)CC1)NCc1cc(=O)oc2cc3c(cc12)OCO3 [compound 815945] — 4.8-fold higher, 116 nM
- CCCCCCCCNC(=O)NCCCCN1CCC(c2noc3ccsc23)CC1 [compound 815946] — within 1.5-fold, 28.3 nM
- COc1c(Cl)cccc1NC(=O)NCCCCN1CCC(c2noc3ccsc23)CC1 [compound 815947] — within 1.5-fold, 26 nM
- O=C(NCCCCN1CCC(c2noc3ccsc23)CC1)Nc1ccccc1F [compound 815948] — 4-fold lower, 6.04 nM
- O=C(NCCCCN1CCC(c2noc3ccsc23)CC1)Nc1ccccc1Cl [compound 815949] — 1.8-fold lower, 13.6 nM
- CC(C)c1ccccc1NC(=O)NCCCCN1CCC(c2noc3ccsc23)CC1 [compound 815952] — within 1.5-fold, 27 nM
- C=C(C)c1cccc(C(C)(C)NC(=O)NCCCCN2CCC(c3noc4ccsc34)CC2)c1 [compound 815953] — 2.8-fold higher, 67.9 nM
- CCOC(=O)c1ccc(NC(=O)NCCCCN2CCC(c3noc4ccsc34)CC2)cc1 [compound 815954] — 1.6-fold lower, 14.9 nM
- O=C(NCCCCN1CCN(c2csc3cc(C(F)(F)F)ccc23)CC1)Nc1cccc2ccccc12 [compound 815996] — 4.1-fold lower, 5.85 nM
- O=C(NCCCCN1CCN(c2csc3cc(C(F)(F)F)ccc23)CC1)NCc1ccccc1 [compound 815998] — within 1.5-fold, 22.5 nM
- COc1ccccc1NC(=O)NCCCCN1CCN(c2csc3cc(C(F)(F)F)ccc23)CC1 [compound 815999] — within 1.5-fold, 19 nM
- O=C(NCCCCN1CCN(c2csc3cc(C(F)(F)F)ccc23)CC1)Nc1ccc(F)cc1 [compound 816004] — 3.9-fold lower, 6.11 nM
- O=C(NCCCCN1CCN(c2csc3cc(C(F)(F)F)ccc23)CC1)Nc1ccc(F)cc1F [compound 816006] — 3.2-fold lower, 7.42 nM
- Cc1ccccc1NC(=O)NCCCCN1CCN(c2csc3cc(C(F)(F)F)ccc23)CC1 [compound 816007] — within 1.5-fold, 17.5 nM
- COc1ccc(NC(=O)NCCCCN2CCN(c3csc4cc(C(F)(F)F)ccc34)CC2)c(OC)c1 [compound 816008] — within 1.5-fold, 17 nM
